Laboratory results published in the supplement of paper PMC10883282.
± gives the standard deviation of the averaged measurements.

How the values were obtained:
Experiment in all cases: relative viability vs DMSO control (72 h) (fraction); higher = more viable cells
RD-ES = system: RD-ES
How it was run: (§1)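 Sarcoma cell lines were plated in 384 wells to reach 80–90% confluence, treated after 24 h with 2.5 µl of serially diluted compound and held 72 h at 37 °C, 5% CO2. Relative viability was taken as percent growth from ATPLite readings, averaged over up to triplicate wells. The values were rescaled so that 1 marks full and 0 marks none.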

HT1080 = system: HT1080
How it was run: as §1

RD = system: RD
How it was run: as §1

VA-ES-BJ = system: VA-ES-BJ
How it was run: as §1

KHOS-NP = system: KHOS-NP
How it was run: as §1

C[C@H]1Oc2cc(cnc2N)-c2c(nn(C)c2C#N)CN(C)C(=O)c2ccc(F)cc21 [Lorlatinib]
relative viability
Settings | HT1080 | KHOS-NP | RD | RD-ES | VA-ES-BJ
0.00017 µM | 1.09 ± 0.018 | 1.09 ± 0.014 | 1.09 ± 0.057 | 0.973 ± 0.021 | 1.056 ± 0.0097
0.00051 µM | 1.08 ± 0.033 | 1.091 ± 0.0096 | 1.11 ± 0.035 | 0.96 ± 0.048 | 1.08 ± 0.013
0.00152 µM | 1.09 ± 0.083 | 1.09 ± 0.016 | 1.11 ± 0.064 | 0.972 ± 0.016 | 1.05 ± 0.032
0.00457 µM | 1.1 ± 0.037 | 1.07 ± 0.031 | 1.09 ± 0.044 | 0.978 ± 0.012 | 1.03 ± 0.042
0.01372 µM | 1.08 ± 0.015 | 1.07 ± 0.03 | 1.12 ± 0.075 | 0.969 ± 0.018 | 1.02 ± 0.033
0.04115 µM | 1.03 ± 0.06 | 1.06 ± 0.013 | 1.07 ± 0.069 | 0.9601 ± 0.0037 | 0.989 ± 0.041
0.1235 µM | 1.07 ± 0.025 | 1.02 ± 0.039 | 1.02 ± 0.054 | 0.965 ± 0.018 | 0.989 ± 0.034
0.3704 µM | 1.09 ± 0.044 | 1.07 ± 0.025 | 1 ± 0.032 | 0.891 ± 0.016 | 0.956 ± 0.048
1.111 µM | 1.03 ± 0.067 | 0.999 ± 0.016 | 0.948 ± 0.045 | 0.861 ± 0.026 | 0.966 ± 0.048
3.333 µM | 1.09 ± 0.051 | 1.02 ± 0.011 | 0.838 ± 0.016 | 0.74 ± 0.014 | 0.955 ± 0.044
10 µM | 1.05 ± 0.042 | 0.954 ± 0.05 | 0.668 ± 0.035 | 0.499 ± 0.013 | 0.87 ± 0.039

Cc1c(F)cc(C(=O)NC2CC2)cc1-c1ccc(C(=O)NCC(C)(C)C)cn1 [Losmapimod]
relative viability
Settings | HT1080 | KHOS-NP | RD | RD-ES | VA-ES-BJ
0.00017 µM | 1.09 ± 0.049 | 1.08 ± 0.018 | 1.11 ± 0.06 | 1.01 ± 0.05 | 1.11 ± 0.023
0.00051 µM | 1.09 ± 0.012 | 1.1 ± 0.014 | 1.11 ± 0.038 | 0.995 ± 0.012 | 1.1 ± 0.026
0.00152 µM | 1.12 ± 0.022 | 1.09 ± 0.015 | 1.1 ± 0.04 | 1.02 ± 0.031 | 1.07 ± 0.061
0.00457 µM | 1.11 ± 0.021 | 1.1 ± 0.011 | 1.14 ± 0.014 | 0.993 ± 0.025 | 1.07 ± 0.055
0.01372 µM | 1.1 ± 0.017 | 1.11 ± 0.012 | 1.12 ± 0.033 | 0.998 ± 0.046 | 1.07 ± 0.048
0.04115 µM | 1.149 ± 0.0082 | 1.12 ± 0.017 | 1.13 ± 0.017 | 0.962 ± 0.043 | 1.06 ± 0.046
0.1235 µM | 1.16 ± 0.014 | 1.097 ± 0.0082 | 1.11 ± 0.012 | 0.947 ± 0.05 | 0.988 ± 0.045
0.3704 µM | 1.13 ± 0.018 | 1.1 ± 0.013 | 1.07 ± 0.04 | 0.917 ± 0.012 | 1.03 ± 0.017
1.111 µM | 1.11 ± 0.023 | 1.097 ± 0.0074 | 1.08 ± 0.057 | 0.879 ± 0.013 | 1.03 ± 0.063
3.333 µM | 1.09 ± 0.024 | 1.081 ± 0.0022 | 1.02 ± 0.061 | 0.892 ± 0.011 | 1.02 ± 0.068
10 µM | 1.11 ± 0.023 | 1.1 ± 0.018 | 1.07 ± 0.039 | 0.879 ± 0.019 | 1 ± 0.032

CO[C@@H]1[C@H](N(C)C(=O)c2ccccc2)C[C@H]2O[C@]1(C)n1c3ccccc3c3c4c(c5c6ccccc6n2c5c31)C(=O)NC4 [Midostaurin]
relative viability
Settings | HT1080 | KHOS-NP | RD | RD-ES | VA-ES-BJ
0.00017 µM | 1.01 ± 0.023 | 1.04 ± 0.013 | 1.06 ± 0.12 | 0.971 ± 0.033 | 0.978 ± 0.051
0.00051 µM | 0.999 ± 0.048 | 1.04 ± 0.03 | 1.06 ± 0.1 | 0.991 ± 0.034 | 0.943 ± 0.042
0.00152 µM | 1.007 ± 0.0057 | 1.04 ± 0.016 | 1.07 ± 0.052 | 0.982 ± 0.017 | 0.974 ± 0.048
0.00457 µM | 0.986 ± 0.041 | 1.038 ± 0.0094 | 1.09 ± 0.032 | 0.938 ± 0.015 | 0.978 ± 0.0096
0.01372 µM | 1.04 ± 0.057 | 1.02 ± 0.028 | 1.09 ± 0.03 | 0.931 ± 0.025 | 0.958 ± 0.018
0.04115 µM | 0.987 ± 0.044 | 1.02 ± 0.029 | 1.05 ± 0.027 | 0.923 ± 0.015 | 0.945 ± 0.025
0.1235 µM | 0.9478 ± 0.0065 | 0.987 ± 0.043 | 0.989 ± 0.011 | 0.883 ± 0.026 | 0.917 ± 0.023
0.3704 µM | 0.716 ± 0.049 | 0.893 ± 0.069 | 0.731 ± 0.022 | 0.825 ± 0.043 | 0.668 ± 0.038
1.111 µM | 0.406 ± 0.022 | 0.39 ± 0.007 | 0.46 ± 0.012 | 0.166 ± 0.014 | 0.372 ± 0.019
3.333 µM | 0.31 ± 0.015 | 0.257 ± 0.018 | 0.415 ± 0.01 | 0.0737 ± 0.0029 | 0.269 ± 0.014
10 µM | 0.288 ± 0.0062 | 0.271 ± 0.013 | 0.42 ± 0.011 | 0.0525 ± 0.0028 | 0.181 ± 0.015

Cc1ccc(C(=O)OCc2ccc([C@@H](CN)C(=O)Nc3ccc4cnccc4c3)cc2)c(C)c1 [Netarsudil]
relative viability
Settings | HT1080 | KHOS-NP | RD | RD-ES | VA-ES-BJ
0.00017 µM | 1.03 ± 0.02 | 1.03 ± 0.013 | 1.09 ± 0.067 | 0.995 ± 0.011 | 1.02 ± 0.051
0.00051 µM | 1.02 ± 0.022 | 1.06 ± 0.038 | 1.1 ± 0.059 | 0.98 ± 0.011 | 1 ± 0.065
0.00152 µM | 1.043 ± 0.006 | 1.03 ± 0.017 | 1.12 ± 0.087 | 0.971 ± 0.021 | 0.998 ± 0.033
0.00457 µM | 0.994 ± 0.046 | 1.05 ± 0.012 | 1.11 ± 0.054 | 0.9831 ± 0.0081 | 1.02 ± 0.048
0.01372 µM | 1.03 ± 0.026 | 1.03 ± 0.025 | 1.1 ± 0.037 | 0.976 ± 0.011 | 1.01 ± 0.022
0.04115 µM | 1.01 ± 0.024 | 1.03 ± 0.03 | 1.14 ± 0.046 | 1.02 ± 0.02 | 0.991 ± 0.028
0.1235 µM | 1.03 ± 0.029 | 1 ± 0.011 | 1.13 ± 0.044 | 1.015 ± 0.0052 | 0.99 ± 0.058
0.3704 µM | 1.04 ± 0.041 | 0.997 ± 0.014 | 1.15 ± 0.036 | 1.035 ± 0.0093 | 0.998 ± 0.039
1.111 µM | 1.03 ± 0.026 | 0.968 ± 0.037 | 1.15 ± 0.047 | 1.01 ± 0.015 | 1.03 ± 0.03
3.333 µM | 1.02 ± 0.019 | 0.986 ± 0.056 | 0.976 ± 0.19 | 0.677 ± 0.028 | 1.03 ± 0.12
10 µM | 0.0118 ± 0.00069 | 0.0142 ± 0.0013 | 0.0128 ± 0.0013 | 0.0137 ± 0.0016 | 0.659 ± 0.13

Cc1cn(-c2cc(NC(=O)c3ccc(C)c(Nc4nccc(-c5cccnc5)n4)c3)cc(C(F)(F)F)c2)cn1 [Nilotinib]
relative viability
Settings | HT1080 | KHOS-NP | RD | RD-ES | VA-ES-BJ
0.00017 µM | 1.02 ± 0.05 | 1.038 ± 0.0085 | 1.06 ± 0.057 | 0.934 ± 0.053 | 1.05 ± 0.027
0.00051 µM | 0.997 ± 0.033 | 1.05 ± 0.0076 | 1.07 ± 0.064 | 0.919 ± 0.065 | 1.04 ± 0.024
0.00152 µM | 0.964 ± 0.021 | 1.04 ± 0.023 | 1.09 ± 0.083 | 0.927 ± 0.068 | 1.04 ± 0.028
0.00457 µM | 1.01 ± 0.032 | 1.05 ± 0.021 | 1.08 ± 0.083 | 0.938 ± 0.058 | 1.05 ± 0.028
0.01372 µM | 1.04 ± 0.024 | 1.02 ± 0.018 | 1.11 ± 0.047 | 0.925 ± 0.047 | 1.05 ± 0.036
0.04115 µM | 0.991 ± 0.042 | 1.02 ± 0.015 | 1.12 ± 0.079 | 0.936 ± 0.042 | 1.06 ± 0.018
0.1235 µM | 1.03 ± 0.071 | 1.044 ± 0.0053 | 1.11 ± 0.047 | 0.912 ± 0.053 | 1.08 ± 0.044
0.3704 µM | 1 ± 0.03 | 1.03 ± 0.021 | 1.07 ± 0.072 | 0.883 ± 0.061 | 1.1 ± 0.028
1.111 µM | 0.993 ± 0.047 | 1.04 ± 0.0061 | 0.898 ± 0.02 | 0.826 ± 0.083 | 1.1 ± 0.016
3.333 µM | 1.02 ± 0.018 | 1.02 ± 0.013 | 0.731 ± 0.025 | 0.702 ± 0.038 | 0.989 ± 0.03
10 µM | 0.889 ± 0.03 | 0.929 ± 0.059 | 0.6531 ± 0.0034 | 0.714 ± 0.04 | 0.679 ± 0.043
